Experimental data taken from patent US20230355622A1, “METHODS OF CHEMOVACCINATION AGAINST PLASMODIUM INFECTIONS” (Merck Sharp & Dohme LLC, priority 2020, published 2023).

Tests used:
PMIX = experiment: Cleavage of PMIX substrates RAP1 and ASP in parasite extracts; format: cell-based, P. falciparum
Description: To confirm that Example 1A was a dual inhibitor of PMIX and PMX function, the ability of this compound to inhibit cleavage of the known PMIX substrate Rhoptry Associated Protein 1 (RAPI) in parasite extracts was tested (Pino et al., 2017). RAP1 is a merozoite rhoptry protein that is localized to the parasitophorous vacuole after invasion and processed by both PMIX and SUB1 (Pino et al., 2017). […] RAP1 was not released into the parasite supernatant because it was deposited in the parasitophorous vacuole during the invasion process (Baldi, D., Andrews, K., Waller, R., Roos, D., Howard, R., Crabb, B. and Cowman, A. (2000)). RAP1 controls rhoptry targeting of RAP2 in the malaria parasite Plasmodium falciparum. Embo Journal 19, 2435-2443.

parasite = experiment: Parasite LDH growth assay (Parasite Assay), antiparasite potency; format: cell-based; details: 72 h
Procedure, shortened: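 Growth was read by an LDH assay after a freeze–thaw cycle (−80 °C overnight, 4 h thaw at RT). Before that, parasites grew with compound for 72 h at 37 °C under gassed, humidified conditions. The input was a ring-stage culture adjusted to 0.7% parasitemia and 2% haematocrit in serum (5%)/albumax (0.5%)-supplemented RPMI-Hepes.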

[1] = tested on: P. berghei sporozoites expressing mCherry and Luciferase (PbmCherryLuci); experiment: Chemoprotection of BALB/c mice infected with PbmCherryLuci sporozoites (FIG. 1); format: in vivo, Plasmodium berghei; details: female BALB/c mice, 40,000 sporozoites i.v.; treated twice by oral gavage at 36 and 48 hours during liver infection; 30 days monitoring
Description: 40,000 PbmCherryLuci sporozoites (or the indicated number of sporozoites) were inoculated i.v. and compounds were administered by oral gavage at indicated time points during liver infection. Liver infection levels and egress of parasites from the liver were measured by bioluminescence signal from the parasites using an In Vivo Imaging System (IVIS, Perkin Elmer) at the peak of liver infection (52 hours post infection, hpi), during liver egress (55 hpi) as well as during the first round of blood infection (65 hpi). Initiation of blood infection was also measured by flow cytometry at 65 hpi using the mCherry reporter to determine the parasitemia of this first round of blood infection. These analyses allowed quantification of the efficacy of drug killing of parasites in the liver (52 hpi), preventing their egress from the liver (55 hpi) or preventing their successful infection of the blood (65 hpi). Mice were monitored by giemsa stained thin blood smears for the presence of parasites in the blood for 30 days post infection. If no blood infection was seen during the subsequent 30 days, mice were declared cured of malaria infection.
Mice were infected with 40,000 P. berghei sporozoites expressing mCherry and Luciferase (PbmCherryLuci) and treated with Example 1A as described above. […]

PbmCherryLuci = experiment: Rechallenge of chemo-protected mice by mosquito bite infection at 6 and 12 months (FIG. 2A, 2B); format: in vivo, Plasmodium berghei; details: 15 infected mosquito bites
Excerpt: Previously chemo-protected mice were rechallenged with PbmCherryLuci 6 months later by mosquito bite infection. […] In both experiments naïve, sex matched control mice all became infected as expected. Thus in addition to chemoprotection, Example IA could possibly act as a chemovaccination to protect against future infections for one year or more.

[2] = tested on: PbmCherryLuci sporozoites; experiment: Immunity after chemovaccination with increasing numbers of sporozoites, BALB/c mice (FIG. 5-7); format: in vivo, Plasmodium berghei
Description: To investigate how many sporozoites are required to develop immunity, female BALB/c mice (n=3/group) were infected intravenously (i.v.) with increasing numbers of PbmCherryLuci sporozoites and cured with 2×100 mg/kg doses of Example 1A. Three months later, the chemovaccinated mice were challenged with 10 PbmCherryLuci infected mosquito bites. […] Twelve months later, the chemovaccinated mice were challenged with 10 PbmCherryLuci infected mosquito bites.

PMX = PMX (Plasmodium falciparum, UniProt Q8IAS0); details: P. falciparum parasites incubated with compound; SERA5 120 kDa, processed by SUB1
Excerpt: SERA5 is a 120 kDa protein required for merozoite egress and is processed by subtilisin-like protease subtilisin 1 (SUB1) to release a soluble polypeptide of approximately 50 kDa (Pino, P., Caldelari, R., Mukherjee, B., Vahokoski, J., Klages, N., Maco, B., et al. (2017). A multistage antimalarial targets the plasmepsins IX and X essential for invasion and egress. Science 358, 522-528). […] SERA5 was included as a control in all subsequent experiments as a proxy for PMX-mediated activation of SUB1.

[3] = tested on: P. falciparum salivary gland sporozoites; experiment: Chemoprophylaxis of humanised (FRG) mice infected with P. falciparum sporozoites (FIG. 10); format: in vivo; details: FRG mouse with human hepatocytes, 300,000 sporozoites i.v.; four oral treatments 100 mg/kg at day 5, 5.5, 6, 6.5
Description: Four immunocompromised mice engrafted with human hepatocytes (FRG mice, Yecuris, OR, USA) were each infected intravenously with 300,000 freshly dissected P. falciparum salivary gland sporozoites. Three mice received no treatment, while one mouse received four oral treatments with 100 mg/kg Example 1A during P. falciparum liver stage development (at day 5, day 5.5, day 6 and day 6.5 post infection). […] On day 7 post infection all mice were bled, and the blood cultured under standard culture conditions at 4% hematocrit with 1% oxygen. Fresh hematocrit was added to the cultures each week to provide fresh host cells for infection, and cultures were analysed for the presence of blood parasites 2-3 times per week by inspection of Giemsa-stained thin blood smears.

Chain of PMX (Q8IAS0 222-573): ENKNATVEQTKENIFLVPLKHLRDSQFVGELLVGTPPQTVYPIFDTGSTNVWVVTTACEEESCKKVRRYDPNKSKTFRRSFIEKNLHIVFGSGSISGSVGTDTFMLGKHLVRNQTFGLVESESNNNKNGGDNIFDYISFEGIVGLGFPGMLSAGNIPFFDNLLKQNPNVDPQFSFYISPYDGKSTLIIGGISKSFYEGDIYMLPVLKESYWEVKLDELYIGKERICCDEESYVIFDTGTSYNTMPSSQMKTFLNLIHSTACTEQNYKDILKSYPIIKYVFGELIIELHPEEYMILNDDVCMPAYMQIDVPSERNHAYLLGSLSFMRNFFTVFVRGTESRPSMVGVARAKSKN

`CCC1(CC)CC(=O)N(C2CCOc3ccc(C(=O)N[C@H]4CC(C)(C)Oc5ccccc54)cc32)C(=N)N1` (stereo partly drawn) [Example 1A, 4-(4,4-diethyl-2-imino-6-oxotetrahydropyrimidin-1(2H)-yl)-N—((S)-2,2-dimethylchroman-4-yl)chroman-6-carboxamide] was tested, and the “RAP1 processing by PMIX and SUB1” value (PMIX; treated parasites/merozoites, processed forms p82 and p69, unprocessed p87) was “only the unprocessed p87 form of RAP1 was present”, the “Apical Sushi Protein (ASP) processing by PMIX” value (PMIX; treated parasites, p47 processed, p87 full-length) was “cleavage event was inhibited” and the EC50 (parasite) was 0.5 nM. The “cure of infection / prevention of subsequent blood infection” value [1] was “cured mice of infection”, the “immunity to reinfection challenge” value (PbmCherryLuci; rechallenge 6 months later) was “all mice were subsequently immune” and the “mice fully protected on rechallenge” value (PbmCherryLuci; rechallenge 12 months after chemoprotection) was “Four of five mice were again fully protected”. For the same molecule, the “mice with sterile protection from blood stage malaria infection” value ([2]; BALB/c n=3/group, immunized with 500 sporozoites i.v., 2x100 mg/kg, 3-month challenge, 10 mosquito bites) was 1/3, the “sterile protection from blood stage malaria infection” value ([2]; challenge at 12 months (FIG. 7)) was “all mice showed sterile protection” and the “mice that developed malaria symptoms but showed partial immunity” value ([2]; immunized with 500 sporozoites i.v., 2x100 mg/kg, 3-month challenge) was 2/3. The “sterile protection from blood stage malaria infection” value ([2]; immunized with 1,000 sporozoites i.v., 2x100 mg/kg, 3-month challenge) was “showed sterile protection from blood stage malaria infection”, the “sterile protection from blood stage malaria infection” value ([2]; immunized with 40,000 sporozoites i.v., 2x100 mg/kg, 3-month challenge) was “showed sterile protection from blood stage malaria infection” and the immunity on re-challenge ([2]; mice immune at 3 months, re-challenged at 6 and 12 months post initial immunization) was “completely immune”. The SERA5 processing (PMX) was “accumulation of unprocessed SERA5 at 120 kDa” and the “blood parasites in culture of blood taken day 7 post infection” value [3] was “remained negative for blood parasites over an eight-week observation period”.
